Data taken from US20250339409A1, “USES OF PAN BET INHIBITORS” (VYNE THERAPEUTICS INC., priority 2021, published 2025).
Where “and” joins values, the source holds several entries; their conditions need not be identical. Identical values can stand only once.

System: E-cadherin
Experiment: RHE vitiligo model: E-cadherin secretion by ELISA
Format: cell-based, human
Conditions: for E-Cad (% stimulated ctl) Mean / E-Cad (% stimulated ctl): TNF-α/IFN-γ stimulated RHE; for E-Cad (% stimulated ctl) Mean / E-Cad (% stimulated ctl) / Mean conc E-Cad / Conc E-Cad: 48 h; for E-Cad (% stimulated ctl) / Conc E-Cad: replicates N1-N3; for Mean conc E-Cad / Conc E-Cad: culture medium of RHE, TNF-α 12 ng/ml/IFN-γ 12 ng/ml; for E-Cadherin secretion: RHE stimulated with TNF-α/IFN-γ
Method: […] Three epidermis samples per condition are fixed in 4% formaldehyde solution and embedded in paraffin for further analysis (morphology analysis, melanin and melanocytes localisation/quantification). Three other epidermis samples per condition are put in a specific lysis buffer for total RNA extraction.
At the end of the treatments, culture media is collected (from 3 epidermis per condition), aliquoted and stored at −20° C. until use in ELISA assays. The quantity of MMP-9 secreted by the epidermis at the end of the treatments is analysed using the human MMP-9 Quantikine ELISA kit (Bio-Techne; DMP900). The secretion of E-cadherin in culture media is measured using to human E-cadherin Quantikine ELISA kit (Bio-Techne; DCADE0) dedicated for the measurement of natural human E-cadherin in culture supernates, serum, plasma, urine, and saliva.
The ELISAs are performed following the instructions of the supplier. The quantities of MMP-9 and E-cadherin are determined by comparisons with standard curves performed with recombinant human MMP-9 or E-cadherin provided in the kits.
Quantification of secretion of MMP-9 and E-cadherin by ELISA from collected culture medium was conducted in accordance with Method E. The results, shown in FIG. 5A and FIG. 5B are based on Tables 23 and 24 respectively and presented in percentage of release in comparison to the stimulated control. A statistical analysis (student t-test) was performed to compare the effects of the treatments with the formulations to the vehicle (with $: 0.05>p>0.01; $$: 0.01>p>0.001; and $$$: p<0.001). The same analysis was performed to compare the effects of the vehicle and of the unstimulated control to the stimulated control (with *: 0.05>p>0.01; **: 0.01>p>0.001; and ***: p<0.001). The analysis was performed from three replicates per condition (n=3). The mean of the three values and the standard deviation are presented on the histograms in FIG. 5A and FIG. 5B. As shown in Table 21 and FIG. 5A and consistent with the results of Part A, MMP-9 secretion was increased following the stimulation with the cytokines, which validates the assay.

Cn1cc(-c2cccc(O)c2Oc2ccccc2)c2cc[nH]c2c1=O [BETi1]
E-Cad (% stimulated ctl) Mean (BETi1 0.001%): 138% | E-Cad (% stimulated ctl) (BETi1 0.001%): 129% (2×) and 156% | Mean conc E-Cad (BETi1 0.001%): 3.2 ng/mL | Conc E-Cad (BETi1 0.001%): 3.0 ng/ml (2×) and 3.6 ng/ml | E-Cad (% stimulated ctl) Mean (BETi1 0.01%): 118% | E-Cad (% stimulated ctl) (BETi1 0.01%): 117% and 109% and 128% | Mean conc E-Cad (BETi1 0.01%): 2.7 ng/mL | Conc E-Cad (BETi1 0.01%): 2.7 ng/mL and 2.5 ng/mL and 2.9 ng/mL | E-Cad (% stimulated ctl) Mean (BETi1 0.1%): 59% | E-Cad (% stimulated ctl) (BETi1 0.1%): 61% and 56% and 62% | Mean conc E-Cad (BETi1 0.1%): 1.4 ng/mL | Conc E-Cad (BETi1 0.1%): 1.4 ng/ml (2×) and 1.3 ng/ml | E-Cad (% stimulated ctl) Mean (BETi1 1%): 72% | E-Cad (% stimulated ctl) (BETi1 1%): 71% and 72% and 74% | Mean conc E-Cad (BETi1 1%): 1.7 ng/mL | Conc E-Cad (BETi1 1%): 1.6 ng/ml and 1.7 ng/ml (2×) | E-Cadherin secretion (listed as 1% BETi1): about 118% | E-Cadherin secretion (listed as BETi1 0.1%): 59%
